In patent US3995059A, “Pharmaceutical compositions containing fatty acid amide derivatives” (Sumitomo Chemical Company, Limited, priority 1966, dated 1976):

What was measured:
[1] = tested on: total cholesterol value in the blood serum; experiment: Total cholesterol in blood serum of mice fed a diet enriched with cholesterol and bile acids (Table 1); type: in vivo; details: 0.2% in diet, oral, 8 to 12 days
Procedure: The effectiveness of the compounds was tested by using mice fed on a specific diet which was enriched with cholesterol and bile acids. […] The amide compound as well was mixed with the specific diet in an amount of 0.2%, and continuously administered orally for 8 to 12 days. Then the total cholesterol value in the blood serum of the animals was evaluated.

liver cholesterol = experiment: Liver cholesterol (deposition of cholesterol and fat in the liver) of mice fed a cholesterol-rich diet (Table 1); type: in vivo; details: 0.2% in diet, oral, 8 to 12 days
[2] = Acute oral toxicity, LD50 (Table 2); details: in vivo, mouse, P.O.
Procedure: The extremely low toxicities of the present acid-amide compounds are illustrated in Table 2, in which the acute toxicities of some of the present compounds in mice are listed.
As is seen from Table 2, no fatal case and no significant toxic symptoms were observed even in such large doses (per os) as 0.5 g. per 10 g., namely 50 g./kg. of the body weight. Also, no significant toxic symptoms, or fatal cases, were observed when the amides in amounts of 1, 0.5 or 0.2% in the diet were administered to mice everyday for three weeks. The appetite was normal and digestive functions were unchanged. When the internal organs were inspected by dissection, there was no appreciable change.

Serum cholesterol = Serum cholesterol of rabbits fed a cholesterol rich diet; type: in vivo; details: 200 mg/day with cholesterol rich diet
Rabbit serum cholesterol = Rabbit serum cholesterol lowering ratio after 9 weeks; type: in vivo; details: control 0%

In the case of CC/C=C\C/C=C\C/C=C\CCCCCCCC(=O)NC(C)c1cccc(Cl)c1 (centres unmarked) [drawing 95], the Serum cholesterol ([1]; experiment [XI], control 595) is reported as 275 mg % and the Liver cholesterol (liver cholesterol; experiment [XI], control 3451) is reported as 995 mg/100 g.
CC/C=C\C/C=C\C/C=C\CCCCCCCC(=O)NC(C)c1cccc(Cl)c1 (centres unmarked) [drawing 96] gave a Serum cholesterol ([1]; experiment [XI], control 595) of 300 mg % and a Liver cholesterol (liver cholesterol; experiment [XI], control 3451) of 1029 mg/100 g.
In the case of CC/C=C\C/C=C\C/C=C\CCCCCCCC(=O)NC(CC)c1ccc([N+](=O)[O-])cc1 (centres unmarked) [drawing 97], the Serum cholesterol ([1]; experiment [XI], control 595) is reported as 245 mg % and the Liver cholesterol (liver cholesterol; experiment [XI], control 3451) is reported as 1004 mg/100 g.
With CC/C=C\C/C=C\C/C=C\CCCCCCCC(=O)NC(CC)c1ccc([N+](=O)[O-])cc1 (centres unmarked) [drawing 98] the Serum cholesterol ([1]; experiment [XI], control 595) was 365 mg % and the Liver cholesterol (liver cholesterol; experiment [XI], control 3451) was 1325 mg/100 g.
With CC/C=C\C/C=C\C/C=C\CCCCCCCC(=O)NC(Cc1ccccc1)c1ccccc1 (centres unmarked) [drawing 99] the Serum cholesterol ([1]; experiment [XI], control 595) was 240 mg % and the Liver cholesterol (liver cholesterol; experiment [XI], control 3451) was 623 mg/100 g.
CC/C=C\C/C=C\C/C=C\CCCCCCCC(=O)NC(Cc1ccccc1)c1ccccc1 (centres unmarked) [drawing 100] showed a Serum cholesterol ([1]; experiment [XI], control 595) of 275 mg % and a Liver cholesterol (liver cholesterol; experiment [XI], control 3451) of 1632 mg/100 g.
CC/C=C\C/C=C\C/C=C\CCCCCCCC(=O)NC(CC)c1ccc(OC)cc1 (centres unmarked) [drawing 102] gave a Serum cholesterol ([1]; experiment [XI], control 595) of 280 mg % and a Liver cholesterol (liver cholesterol; experiment [XI], control 3451) of 870 mg/100 g.
In the case of CC/C=C\C/C=C\C/C=C\CCCCCCCC(=O)NC(CC)c1ccc(OC)cc1 (centres unmarked) [drawing 103], the Serum cholesterol ([1]; experiment [XI], control 595) is reported as 339 mg % and the Liver cholesterol (liver cholesterol; experiment [XI], control 3451) is reported as 1620 mg/100 g.
With CCCCC/C=C\C/C=C\CCCCCCCC(=O)NC(C)c1ccccc1 (centres unmarked) [drawing 136] the LD50 [2] was greater than 50000 mg/kg.
CCCCC/C=C\C/C=C\CCCCCCCC(=O)NC(C)c1ccc(C)cc1 (centres unmarked) [drawing 138] showed an LD50 [2] greater than 50000 mg/kg.
With CCCCC/C=C\C/C=C\CCCCCCCC(=O)NC12CC3CC(CC(C3)C1)C2 [drawing 140] the LD50 [2] was greater than 50000 mg/kg.
CCCCC/C=C\C/C=C\CCCCCCCC(=O)NC(C)c1ccccc1 (centres unmarked) [drawing 144] showed a Serum cholesterol (Serum cholesterol; 2 weeks, control 250) of 250 mg. %, a Serum cholesterol (Serum cholesterol; 4 weeks, control 563) of 130 mg. % and a Serum cholesterol (Serum cholesterol; 6 weeks, control 890) of 65 mg. %. For the same compound, the Serum cholesterol (Serum cholesterol; 8 weeks, control 1150) was 60 mg. % and the Serum cholesterol (Serum cholesterol; 10 weeks, control 1750) was 52 mg. %.
With CCCCC/C=C\C/C=C\CCCCCCCC(=O)NC(C)c1ccc(C)cc1 (centres unmarked) [drawing 145] the “Rabbit serum cholesterol Towering ratio (after 9 weeks)” value (Rabbit serum cholesterol; 100 mg/kg/day) was 60.1%.
In the case of CCCCC/C=C\C/C=C\CCCCCCCC(=O)NC(CC)c1ccc(C)cc1 (centres unmarked) [drawing 146], the “Rabbit serum cholesterol Towering ratio (after 9 weeks)” value (Rabbit serum cholesterol; 100 mg/kg/day) is reported as 59.2%.
For CCCCC/C=C\C/C=C\CCCCCCCC(=O)NC(C)c1ccc(Cl)cc1 (centres unmarked) [drawing 147], the “Rabbit serum cholesterol Towering ratio (after 9 weeks)” value (Rabbit serum cholesterol; 100 mg/kg/day) was 80.1%.
For CCCCC/C=C\C/C=C\CCCCCCCC(=O)NC(C)c1ccc(Cl)c(Cl)c1 (centres unmarked) [drawing 148], the “Rabbit serum cholesterol Towering ratio (after 9 weeks)” value (Rabbit serum cholesterol; 100 mg/kg/day) was 61.5%.
In the case of CC/C=C\C/C=C\C/C=C\CCCCCCCC(=O)NC(C)c1ccccc1C (centres unmarked) [drawing 151], the “Rabbit serum cholesterol Towering ratio (after 9 weeks)” value (Rabbit serum cholesterol; 100 mg/kg/day) is reported as 54.5%.
CC(C)CCCCCCCCCCCCCCC(=O)NC(Cc1ccccc1)c1ccccc1 (centres unmarked) [iso-C17 H35 CO] gave a Serum cholesterol ([1]; experiment [V], control 372) of 221 mg % and a Liver cholesterol (liver cholesterol; experiment [V], control 2640) of 609 mg/100 g.
CCCCCC=CCC=CCCCCCCCC(=O)NC(Cc1ccccc1)c1ccccc1 (stereo not drawn) [l- C17 H31 CO] gave a Serum cholesterol ([1]; experiment [V], control 372) of 208 mg % and a Liver cholesterol (liver cholesterol; experiment [V], control 2640) of 623 mg/100 g.
Work on CCCCCCCC/C=C\CCCCCCCC(=O)NC(Cc1ccccc1)c1ccccc1 (stereo not drawn) [l- drawing 33] yielded a Serum cholesterol ([1]; experiment [V], control 372) of 263 mg % and a Liver cholesterol (liver cholesterol; experiment [V], control 2640) of 888 mg/100 g.
For CC[C@H](CC[C@@H](C)[C@H]1CC[C@H]2[C@@H]3CC=C4C[C@@H](O)CC[C@]4(C)[C@H]3CC[C@]12C)C(C)C [β-Sitosterol, reference compound], the Serum cholesterol (Serum cholesterol; 2 weeks, control 250) was 250 mg. %, the Serum cholesterol (Serum cholesterol; 4 weeks, control 563) was 438 mg. % and the Serum cholesterol (Serum cholesterol; 6 weeks, control 890) was 875 mg. %. The Serum cholesterol (Serum cholesterol; 8 weeks, control 1150) was 1063 mg. %, the Serum cholesterol (Serum cholesterol; 10 weeks, control 1750) was 1200 mg. % and the “Rabbit serum cholesterol Towering ratio (after 9 weeks)” value (Rabbit serum cholesterol; 800 mg/kg/day) was 21.2%.
